Values after ≈ are worked out from the molar mass of the structure shown.

In the first test the test system is T. cruzi Tulahuen strain C2C4. The test can be described thus: Activity against T. cruzi (beta-galactosidase expressing parasites in L-6 cells). It counts as cell-based, Trypanosoma cruzi. The note with it: Trypanosoma cruzi, TULAHUEN, L6, in Rattus norvegicus, 96 h, read-out: Activity (IC50). The procedure: Activity against T. cruzi. Rat skeletal myoblasts (L-6 cells) were seeded in 96-well microtitre plates at 2000 cells/well in 100 μL RPMI 1640 medium with 10% FBS and 2 mM 1-glutamine. After 24 h the medium was removed and replaced by 100 μl per well containing 5000 trypomastigote forms of T. cruzi Tulahuen strain C2C4 containing the […] (Lac Z) gene (Buckner et al. 1996). After 48 h the medium was removed from the wells and replaced by 100 μl fresh medium with or without a serial drug dilution of eleven 3-fold dilution steps covering a range from 100 to 0.002 μg/ml. After 96 h of incubation the plates were inspected under an inverted microscope to assure growth of the controls and sterility. Then the substrate CPRG/Nonidet (50 μl) was added to all wells. A color reaction developed within 2-6 h and could be read photometrically at 540 nm. Data were analyzed with the graphic programme Softmax Pro (Molecular Devices), which calculated IC50 values by linear regression (Huber 1993) from the sigmoidal dose inhibition curves. Benznidazole is used as control (IC50 0.5±0.2 ug/ml). • Buckner, F. S., C. L. Verlinde, A. C. La Flamme, and W. C. Van Voorhis. 1996. Efficient technique for screening drugs for activity against Trypanosoma cruzi using parasites expressing beta-galactosidase, p. 2592-2597, vol. 40. • Huber, W. Koella, J. C. 1993. A comparison of the three methods of estimating EC50 in studies of drug resistance of malaria parasites. Acta Trop. 55, 257-261.
In general, IC50 refers to the concentration needed to halve the response being measured. For `CC(=O)Nc1ccc2[nH]c(=O)n(Cc3cccc(C(F)(F)F)c3)c(=O)c2c1` [Example 43, N-(2,4-dioxo-3-(3-(trifluoromethyl)benzyl)-1,2,3,4-tetrahydroquinazolin-6-yl)acetamide], the concentration for half-maximal inhibition (IC50) worked out at 0.804 µg/mL (≈ 2.13 µM).

The test is the same for the next values; noted with them: Trypanosoma cruzi, TULAHUEN, L6, in Rattus norvegicus, 96 h, trypomastigotes in rat skeletal myoblasts (L-6 cells), 96 h incubation, CPRG/Nonidet read at 540 nm; read-out: Activity (IC50).
With `CCCCCCn1c(=O)[nH]c2ccc(NC(C)=O)cc2c1=O` [Example 41, N-(3-hexyl-2,4-dioxo-1,2,3,4-tetrahydroquinazolin-6-yl)acetamide], the 50% inhibitory concentration (IC50) is 0.881 µg/mL (≈ 2.9 µM).

As to `CC(=O)Nc1ccc2[nH]c(=O)n(CCC3CCCC3)c(=O)c2c1` [Example 42, N-(3-(2-cyclopentylethyl)-2,4-dioxo-1,2,3,4-tetrahydroquinazolin-6-yl)acetamide], the IC50 came out at 0.713 µg/mL (≈ 2.26 µM).

For `CC(=O)Nc1ccc2[nH]c(=O)n(CCCc3ccc(F)cc3)c(=O)c2c1` [Example 44, N-(3-(3-(4-fluorophenyl)propyl)-2,4-dioxo-1,2,3,4-tetrahydroquinazolin-6-yl)acetamide], the IC50 was found to be 0.943 µg/mL (≈ 2.65 µM).

`CC(=O)Nc1ccc2[nH]c(=O)n(C3CCCCCC3)c(=O)c2c1` [Example 46, N-(3-Cycloheptyl-2,4-dioxo-1,2,3,4-tetrahydro-quinazolin-6-yl)acetamide]: the half-inhibitory concentration (IC50) worked out at 0.661 µg/mL (≈ 2.1 µM).

Take `CC(=O)Nc1ccc2[nH]c(=O)n([C@H]3CC[C@@H](C(C)C)CC3)c(=O)c2c1` [Example 47, N-(3-((1s,4s)-4-Isopropylcyclohexyl)-2,4-dioxo-1,2,3,4-tetrahydroquinazolin-6-yl)acetamide]: the half-maximal inhibitory concentration (IC50) is 0.087 µg/mL (≈ 0.253 µM).

As to `CC(=O)Nc1ccc2[nH]c(=O)n([C@H]3CC[C@H](C(C)C)CC3)c(=O)c2c1` [Example 48, N-(3-((1r,4r)-4-Isopropylcyclohexyl)-2,4-dioxo-1,2,3,4-tetrahydroquinazolin-6-yl)acelamide], the IC50 is 0.018 µg/mL (≈ 0.0524 µM).

In the case of `CC(=O)Nc1ccc2[nH]c(=O)n([C@H]3CC[C@H](C(C)(C)C)CC3)c(=O)c2c1` [Example 49, N-(3-((1r,4r)-4-(tert-butyl)cyclohexyl)-2,4-dioxo-1,2,3,4-tetrahydroquinazolin-6-yl)acetamide], the concentration for half-maximal inhibition (IC50) was 0.008 µg/mL (≈ 0.0224 µM).

Consider `CC(=O)Nc1ccc2[nH]c(=O)n([C@H]3CC[C@@H](C(C)(C)C)CC3)c(=O)c2c1` [Example 50, N-(3-((1s,4s)-4-(Tert-butyl)cyclohexyl)-2,4-dioxo-1,2,3,4-tetrahydroquinazolin-6-yl)acetamide], for which the half-inhibitory concentration (IC50) was determined as 0.005 µg/mL (≈ 0.014 µM).

Consider `CC(=O)Nc1ccc2[nH]c(=O)n(C3C4CC5CC(C4)CC3C5)c(=O)c2c1` (centres unmarked) [Example 51, N-(3-((1r,3r,5r,7r)-adamantan-2-yl)-2,4-dioxo-1,2,3,4-tetrahydroquinazolin-6-yl)acetamide], for which the IC50 stood at 0.178 µg/mL (≈ 0.504 µM).

Consider `CC(=O)Nc1ccc2[nH]c(=O)n(C3CCC(C)(C)CC3)c(=O)c2c1` [Example 52, N-(3-(4,4-dimethylcyclohexyl)-2,4-dioxo-1,2,3,4-tetrahydroquinazolin-6-yl)acetamide], for which the IC50 was 0.058 µg/mL (≈ 0.176 µM).

As for `CC(=O)Nc1ccc2[nH]c(=O)n([C@H]3CC[C@H](C(F)(F)F)CC3)c(=O)c2c1` [Example 53, N-(2,4-dioxo-3-((1r,4r)-4-(trifluoromethyl)cyclohexyl)-1,2,3,4-tetrahydroquinazolin-6-yl)acetamide], the IC50 was found to be 0.13 µg/mL (≈ 0.352 µM).

`CC[C@H]1CC[C@@H](n2c(=O)[nH]c3ccc(NC(C)=O)cc3c2=O)CC1` [Example 55, N-(3-((1s,4s)-4-Ethylcyclohexyl)-2,4-dioxo-1,2,3,4-tetrahydroquinazolin-6-yl)acetamide]: the IC50 came out at 0.3 µg/mL (≈ 0.911 µM).

For the compound `CC[C@H]1CC[C@H](n2c(=O)[nH]c3ccc(NC(C)=O)cc3c2=O)CC1` [Example 56, N-(3-((1r,4r)-4-Ethylcyclohexyl)-2,4-dioxo-1,2,3,4-tetrahydroquinazolin-6-yl)acetamide], the half-maximal inhibitory concentration (IC50) came out at 0.015 µg/mL (≈ 0.0455 µM).

For the compound `CCC[C@H]1CC[C@@H](n2c(=O)[nH]c3ccc(NC(C)=O)cc3c2=O)CC1` [Example 57, N-(2,4-Dioxo-3-((1r,4s)-4-propylcyclohexyl)-1,2,3,4-tetrahydroquinazolin-6-yl)acetamide], the IC50 was determined as 0.06 µg/mL (≈ 0.175 µM).

Regarding `CCC[C@H]1CC[C@H](n2c(=O)[nH]c3ccc(NC(C)=O)cc3c2=O)CC1` [Example 58, N-(2,4-Dioxo-3-((1s,4r)-4-propylcydohexyl)-1,2,3,4-tetrahydroquinazolin-6-yl)acetamide], the IC50 is 0.007 µg/mL (≈ 0.0204 µM).

For the compound `CC(=O)Nc1ccc2[nH]c(=O)n(C3CCC(C)CC3)c(=O)c2c1` (centres unmarked) [Example 59, N-(3-(4-methylcyclohexyl)-2,4-dioxo-1,2,3,4-tetrahydroquinazolin-6-yl)acetamide], the IC50 was 0.329 µg/mL (≈ 1.04 µM).

Take `CC(=O)Nc1ccc2[nH]c(=O)n(C3CCC(C(C)(C)C)C3)c(=O)c2c1` (centres unmarked) [Example 60, N-(3-(3-(Tert-butyl)cyclopentyl)-2,4-dioxo-1,2,3,4-tetrahydroquinazolin-6-yl)acetamide]: the IC50 came out at 0.007 µg/mL (≈ 0.0204 µM).

As for `CC(=O)Nc1ccc2[nH]c(=O)n([C@H]3CCO[C@@H](C(C)(C)C)C3)c(=O)c2c1` [Example 61, N-(3-((2R,4S)-2-(Tert-butyl)tetrahydro-2H-pyran-4-yl)-2,4-dioxo-1,2,3,4-tetrahydroquinazolin-6-yl)acetamide], the half-inhibitory concentration (IC50) is 0.744 µg/mL (≈ 2.07 µM).

Turning to `CC(=O)Nc1ccc2[nH]c(=O)n([C@H]3CC[C@H](C(C)(C)F)CC3)c(=O)c2c1` [Example 62, N-(3-((1r,4r)-4-(2-Fluoropropan-2-yl)cyclohexyl)-2,4-dioxo-1,2,3,4-tetrahydroquinazolin-6-yl)acetamide], the IC50 was 0.933 µg/mL (≈ 2.58 µM).

The values above are taken from US20170114029A1, “TREATMENT OF CHAGAS DISEASE” (UNIVERSITY OF DUNDEE, priority 2014, published 2017).
